Source: PubChem BioAssay (NCI)
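Where inhibition never reached the appropriate level, the endpoint shown equals the highest concentration tested. Otherwise, values were interpolated linearly from a five-concentration, 48-hour dose response in 96-well plates. At the TGI there is no net growth.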

Key:
Assay in all cases: NCI-60 cell line screen, 48 h
RXF 393 renal = system: RXF 393 renal
MOLT-4 leukemia = system: MOLT-4 leukemia
HOP-62 NSCLC = system: HOP-62 NSCLC
HCC-2998 colon = system: HCC-2998 colon
EKVX NSCLC = system: EKVX NSCLC
U251 CNS = system: U251 CNS
COLO 205 colon = system: COLO 205 colon
LOX IMVI melanoma = system: LOX IMVI melanoma
MCF7 breast = system: MCF7 breast
DU-145 prostate = system: DU-145 prostate
HL-60(TB) leukemia = system: HL-60(TB) leukemia
CAKI-1 renal = system: CAKI-1 renal
PC-3 prostate = system: PC-3 prostate
HT29 colon = system: HT29 colon
SF-539 CNS = system: SF-539 CNS
UO-31 renal = system: UO-31 renal
K-562 leukemia = system: K-562 leukemia
NCI-H23 lung = system: NCI-H23 lung
HCT-116 colon = system: HCT-116 colon
SK-MEL-2 melanoma = system: SK-MEL-2 melanoma

| SMILES | TGI (RXF 393 renal) [µM] | TGI (MOLT-4 leukemia) [µM] | TGI (HOP-62 NSCLC) [µM] | TGI (HCC-2998 colon) [µM] | TGI (EKVX NSCLC) [µM] | TGI (U251 CNS) [µM] | TGI (COLO 205 colon) [µM] | TGI (LOX IMVI melanoma) [µM] | TGI (MCF7 breast) [µM] | TGI (DU-145 prostate) [µM] | TGI (HL-60(TB) leukemia) [µM] | TGI (CAKI-1 renal) [µM] | TGI (PC-3 prostate) [µM] | TGI (HT29 colon) [µM] | TGI (SF-539 CNS) [µM] | TGI (UO-31 renal) [µM] | TGI (K-562 leukemia) [µM] | TGI (NCI-H23 lung) [µM] | TGI (HCT-116 colon) [µM] | TGI (SK-MEL-2 melanoma) [µM] |
| --- | --- | --- | --- | --- | --- | --- | --- | --- | --- | --- | --- | --- | --- | --- | --- | --- | --- | --- | --- | --- |
| CNC(=O)CNC(=O)C(Cc1ccc(NC(=O)CCCCC(C)=O)cc1)NC(=O)C(CCC(=O)OCc1ccccc1)NC(=O)OC(C)(C)C (centres undefined) | > 100 | > 100 | > 100 | > 100 | > 100 | > 100 | > 100 | > 100 | > 100 | > 100 | > 100 | > 100 | > 100 | > 100 | > 100 | > 100 | > 100 | > 100 | > 100 | – |
| O=C1CCCCCC1CC(Sc1ccccc1)Sc1ccccc1 (centres undefined) | > 100 | 47.3 | > 100 | > 100 | > 100 | > 100 | > 100 | > 100 | > 100 | > 100 | 52.7 | > 100 | > 100 | > 100 | > 100 | > 100 | > 100 | > 100 | – | > 100 |
| COc1cccc(NC(=O)CC(=O)N2N=C(C)C(N=Nc3ccc(S(=O)(=O)CCOS(=O)(=O)O)cc3)C2=O)c1 (centres undefined) | 15.9 | > 100 | 26 | 29.1 | 31.9 | 17.9 | 31.5 | 4.25 | 5.71 | 29.6 | 6.85 | 10.5 | 14.5 | 13.8 | 28.3 | 24.5 | > 100 | 20.9 | 13 | 6.23 |
| Cc1sc(N)c(S(=O)(=O)c2ccccc2)c1C | > 100 | > 100 | – | > 100 | > 100 | > 100 | > 100 | – | > 100 | > 100 | > 100 | > 100 | > 100 | > 100 | 71 | > 100 | > 100 | > 100 | > 100 | > 100 |
| COc1cc2c(c(OC)c1OC)C(=O)[C@H](Br)[C@H]2NC(=O)NCCCl | > 100 | > 100 | > 100 | > 100 | > 100 | > 100 | > 100 | > 100 | > 100 | > 100 | > 100 | > 100 | > 100 | > 100 | > 100 | > 100 | > 100 | > 100 | > 100 | > 100 |
| Cn1c2ccccc2n2c3ccccc3c(=O)c(C#N)c12 | > 100 | 17.8 | > 100 | > 100 | > 100 | 55.5 | > 100 | > 56.1 | > 100 | 65.8 | > 100 | 35.2 | > 100 | > 100 | > 80.8 | > 71.2 | > 100 | > 59.8 | 33.9 | > 100 |
| COc1ccc([C@]23CCN(S(=O)(=O)c4ccc(C)cc4)[C@H]2[C@H](CO)C2(CC3)OCC(C)(C)CO2)cc1OC | > 100 | > 100 | > 100 | > 100 | > 100 | > 100 | > 100 | > 100 | > 100 | > 100 | > 100 | > 100 | > 100 | > 100 | – | > 100 | > 100 | > 100 | > 100 | > 100 |
| CN(C)CCc1ccnc2nc(-c3ccc4ccccc4c3)cn12 | > 100 | > 100 | > 100 | 37.2 | > 100 | > 100 | > 100 | 65 | > 100 | > 100 | > 100 | > 100 | > 100 | 38.9 | – | > 100 | > 100 | 46.2 | > 100 | > 100 |
| CN(C)CC1(Cc2ccccc2)CCC(Cc2ccccc2)C1=O (centres undefined) | 27.5 | 9.11 | 33 | 21.4 | 31.8 | 31.8 | 19.4 | 15.7 | 24.9 | 28.7 | 12.5 | 23.3 | 22.9 | 28.6 | 33.5 | 30.7 | 7.74 | 36.1 | 26.7 | 27.3 |
| Clc1ccc(C=NC23CC4CC(CC(C4)C2)C3)cc1Cl | > 10 | > 10 | > 10 | > 10 | > 10 | > 10 | > 10 | > 10 | > 10 | > 10 | > 10 | > 10 | > 10 | > 10 | > 10 | – | > 10 | > 10 | > 10 | > 10 |
| O=C(O)c1cc(O)c2c(c1)C([C@@H]1c3cccc(O)c3C(=O)c3c(O)cc(C(=O)O)cc31)c1cccc(O)c1C2=O (some centres undefined) | 85 | 69.2 | – | > 100 | > 100 | 67.8 | > 100 | 31.9 | 91.8 | > 100 | 85.5 | > 100 | > 100 | > 100 | 55 | > 100 | 86.4 | > 100 | 38.1 | – |
| COc1cc2ccc1OCc1cccc(n1)COc1ccc(cc1OC)C=Nc1ccc(cc1)-c1ccc(cc1)N=C2 | > 100 | > 100 | > 100 | > 100 | > 100 | > 100 | > 100 | > 100 | > 100 | > 100 | > 100 | > 100 | > 100 | > 100 | > 100 | > 100 | > 100 | > 100 | > 100 | > 100 |
| C[C@H](CCC(=O)O)[C@H]1CC[C@H]2[C@@H]3[C@H](O)C[C@@H]4C[C@H](O)CC[C@]4(C)[C@H]3CC[C@]12C | > 100 | 62 | > 100 | 79.9 | > 100 | > 100 | 45.7 | > 100 | > 100 | > 100 | > 100 | > 100 | > 100 | 87.4 | 62.1 | 58.5 | > 100 | 64.7 | > 100 | 53.5 |
| O=[N+]([O-])c1ccc2c(c1)nc(Cc1ccc(Cl)cc1)n2C[C@@H]1CCCN2CCCCC12 (some centres undefined) | 25.3 | > 44.8 | 48.9 | 18.8 | > 41.2 | 45.5 | 29.2 | 28.7 | 22.5 | 38.1 | 66.1 | 31.7 | > 51.7 | 28.8 | 35.1 | – | > 54.1 | 34.3 | 23.3 | 30.7 |
| CCN(CC)c1ccc2cc(C(=O)Nc3nc(C45CC6CC(CC(C6)C4)C5)cs3)c(=O)oc2c1 | > 100 | > 100 | > 100 | > 100 | > 100 | > 100 | > 100 | > 100 | > 100 | > 100 | > 100 | > 100 | > 100 | > 100 | > 100 | > 100 | > 100 | > 100 | > 100 | – |
| C[N+](C)(C)CC(=O)N/N=C(/CC1OC(=O)c2ccccc21)c1ccccc1O (centres undefined) | 86.4 | 42.4 | > 100 | 50.9 | > 100 | 72.3 | > 100 | 43.2 | > 100 | > 100 | 52.3 | > 100 | > 100 | > 100 | 62.3 | 56.1 | – | 85.4 | > 100 | > 100 |
| CC(=O)Oc1cc(C)c(OC(C)=O)c2c1[C@H]1CC[C@]3(C)[C@@H](OC(C)=O)CC[C@H]3[C@@H]1CC2 | 33.9 | 33.7 | 34.4 | 26.9 | 26.4 | 29.4 | – | 29.3 | 36.1 | 31.5 | 56.7 | 31.5 | 26.9 | 46.2 | 35.4 | 28.7 | 86.1 | 34.8 | 30.2 | – |
| O=C(NCCNCCNC(=O)C(F)(F)F)C(F)(F)F | > 100 | > 100 | > 100 | > 100 | > 100 | > 100 | > 100 | > 100 | > 100 | > 100 | > 100 | > 100 | > 100 | > 100 | – | > 100 | > 100 | > 100 | > 100 | > 100 |
| COC(=O)c1nc(-c2nc(CCNC(=O)OC(C)(C)C)sc2Cl)sc1Cl | > 100 | > 100 | > 100 | > 100 | > 100 | > 100 | > 100 | – | > 100 | > 100 | > 100 | – | > 100 | > 100 | > 100 | > 100 | > 100 | > 100 | > 100 | – |
| CC1(C)CCC[C@@]2(C)C1C(=O)[C@@H]1O[C@]1(C)[C@@H]2CO (some centres undefined) | 75.6 | > 100 | > 100 | 66.5 | > 100 | 70.8 | 85.1 | > 100 | > 100 | > 100 | 51.8 | – | > 100 | > 100 | > 100 | > 100 | > 100 | 67.9 | > 100 | 66.5 |
| CCO/C(O)=C(/C(=N)N1CCCC1)C(=O)Nc1ccc(F)cc1 | > 100 | > 100 | > 100 | > 100 | > 100 | > 100 | > 100 | > 100 | > 100 | > 100 | > 100 | > 100 | > 100 | > 100 | > 100 | – | > 100 | 59.4 | > 100 | > 100 |
| CCCCCCCCCCCCCCCC(=O)OC(COC(C)=O)CO[P+](=O)O (centres undefined) | > 100 | 80.7 | – | 42.7 | > 100 | 45.3 | > 100 | 63.9 | > 100 | > 100 | > 100 | > 100 | > 100 | – | 53.3 | 97.1 | > 100 | – | – | 40.6 |
| COc1ccc(CCNC(=O)CCc2ccccc2CO)cc1OC | > 100 | > 100 | > 100 | > 100 | > 100 | > 100 | > 100 | – | > 100 | > 100 | > 100 | > 100 | > 100 | > 100 | > 100 | > 100 | > 100 | > 100 | > 100 | > 100 |
| O=C1/C(=C/c2ccccc2)CCc2ccccc21 | 29.7 | 40.8 | 34.4 | 38.6 | 33.7 | 30.4 | 38.2 | 33 | 34.6 | 37 | 37.8 | 32.7 | 38.6 | 32.7 | 31.3 | 27.8 | 20.5 | 45.8 | 33.5 | – |
